# Experimental data as given in PubChem BioAssay (NCI).
#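 Grown in 96-well plates, cells were treated for 48 hours with each compound at five concentrations. Insufficient inhibition: endpoint recorded as highest concentration tested. GI50 is the concentration that inhibits growth by half. TGI: total growth inhibition.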
# How the values were obtained:
# Test in all cases: growth of human tumour cells (NCI), 48 h
# [1] = test system: IGROV1 ovarian
# [2] = test system: SF-295 CNS
# [3] = test system: NCI-H460 lung
# [4] = test system: HCT-116 colon
# [5] = test system: RXF 393 renal
# [6] = test system: SF-539 CNS
# [7] = test system: SK-MEL-2 melanoma
# [8] = test system: SR leukemia
# [9] = test system: HCC-2998 colon
# [10] = test system: NCI/ADR-RES ovarian
Compound,TGI [1] [µM],TGI [2] [µM],TGI [3] [µM],TGI [4] [µM],TGI [5] [µM],TGI [6] [µM],TGI [7] [µM],TGI [8] [µM],TGI [9] [µM],TGI [10] [µM],GI50 [1] [µM],GI50 [2] [µM],GI50 [3] [µM],GI50 [4] [µM],GI50 [5] [µM],GI50 [6] [µM],GI50 [7] [µM],GI50 [8] [µM],GI50 [9] [µM],GI50 [10] [µM]
Cc1c2ccccc2cc2cccc[n+]12,> 100,> 100,> 100,> 100,> 100,> 100,> 100,> 100,> 100,> 100,–,–,–,–,–,–,–,–,–,–
COc1cc2cc[n+](C)c(Cc3ccc(Oc4cc(Cc5c6cc(OC)c(OC)cc6cc[n+]5C)ccc4OC)cc3)c2cc1OC,> 100,> 100,> 100,> 100,> 100,> 100,> 100,> 100,> 100,–,–,–,–,–,–,–,–,–,–,–
Oc1ccc(Cl)cc1C1=Nn2c(COc3ccc4c(c3)CCCC4)nnc2SC1,26.3,29.7,30.9,19.4,32.9,33.4,31.1,–,–,41.2,–,–,–,–,–,–,–,–,–,–
CC(NC(=O)c1ccc(OP(=O)(OCc2ccc([N+](=O)[O-])o2)N(C)CCCCCl)cc1)c1ccc(OCC2CCCCC2)c(C(N)=O)c1 (stereo not given),8.34,> 32.4,14.5,9.5,9.25,10.1,14.5,4.43,> 21.7,> 100,–,–,–,–,–,–,–,–,–,–
COc1ccc(-n2nc(C(=O)c3ccccc3)c3nn4c(=O)cc(-c5ccccc5)nc4nc32)cc1,> 100,85.2,> 100,> 100,> 100,> 100,> 100,> 100,76.7,> 100,25.9,28.9,32.4,> 100,> 100,41.8,45.8,24.9,47.3,34.5
CN(CCN1C(=O)c2cccc3cccc(c23)C1=O)CCN1C(=O)c2cccc3cccc(c23)C1=O,> 100,29,> 100,> 100,76.9,> 100,> 100,13,–,> 100,–,–,–,–,–,–,–,–,–,–
C#C[C@]1(O)[C@@H](CO)O[C@@H](n2ccc(=O)[nH]c2=O)[C@@H]1O,2.59,> 45.2,> 100,–,–,1.39,3.32,> 100,–,–,–,–,–,–,–,–,–,–,–,–
O=C1/C(=C/c2ccc([N+](=O)[O-])cc2)Sc2scc(-c3cccc([N+](=O)[O-])c3)[n+]21,10.7,29.3,26.1,18.1,7.94,6.44,30.8,–,19.1,26.3,–,–,–,–,–,–,–,–,–,–
C=C(CN(C)C)C(=O)c1ccccc1Cl,> 70.8,> 100,> 100,34,29.6,> 54.6,36.5,> 81.7,61,–,–,–,–,–,–,–,–,–,–,–
OC1CCSc2ccccc21 (stereo not given),> 100,–,> 100,> 100,> 100,> 100,> 100,> 100,> 100,–,–,–,–,–,–,–,–,–,–,–
COc1ccc2c3c([nH]c2c1)[C@H](C=C(C)C)N1C(=O)[C@@H]2CCCN2C(=O)[C@@H]1C3,> 100,> 100,> 100,> 100,> 100,83,> 100,> 100,> 100,> 100,–,–,–,–,–,–,–,–,–,–
CC(C)C(=O)CC(c1ccc(Br)cc1)N1N=C(C(C)C)CC1c1ccc(Br)cc1 (stereo not given),–,–,> 100,> 100,> 100,> 100,> 100,> 100,> 100,–,–,–,–,–,–,–,–,–,–,–
CN(CCc1ccccn1)c1ccc2c(c1)Cc1ccccc1-2,88.1,41.1,> 100,> 100,> 100,–,–,–,> 100,> 100,–,–,–,–,–,–,–,–,–,–
Fc1c(F)c(F)c(CSc2nc3ccccc3[nH]2)c(F)c1F,> 100,> 100,> 100,> 100,> 100,> 100,> 100,> 100,> 100,> 100,–,–,–,–,–,–,–,–,–,–
CC1(C)CC(C(=O)OCCCCCCCCCCC[P+](c2ccccc2)(c2ccccc2)c2ccccc2)C(C)(C)N1O (stereo not given),–,0.538,–,1.08,–,1.28,–,–,1.52,–,–,0.211,–,0.185,–,0.324,–,–,0.324,–
CC(C)(C)COS(=O)OCC(C)(C)C,> 100,> 100,> 100,> 100,> 100,> 100,> 100,> 100,> 100,> 100,–,–,–,–,–,–,–,–,–,–
O=C1CNc2cc(N3CCCCC3)ccc2N1,29.7,> 100,> 100,–,–,> 100,> 100,> 100,> 100,> 100,–,–,–,–,–,–,–,–,–,–
NC(N)=N/N=C/c1c(-c2cccs2)nc2n1CCS2,> 100,30.6,40.6,–,> 100,33.3,> 100,34,–,–,34.9,14,18.7,–,77.7,19.2,43.3,17.6,–,–
Cc1ccc(S(=O)(=O)Nc2cc(=O)[nH]c3c2CCC3)cc1,> 100,> 100,> 100,> 100,> 100,> 100,> 100,> 100,> 100,> 100,–,–,–,–,–,–,–,–,–,–
CS(=O)(=O)Nc1cccc(-c2ccc3ncnc(Nc4cncc(Cl)c4)c3c2)c1,4.06,–,> 100,–,4.41,5.82,7.35,5.47,5.27,> 100,0.533,–,3.18,–,1.43,2.06,2.64,1.67,2.4,13.7
CC12OC(C(=O)C13CCC3)C1C(=O)c3c(O)ccc(O)c3C(=O)C12 (stereo not given),11.4,10.3,29.3,1.78,3.3,15.8,> 100,2.23,–,2.63,3.3,–,7.46,0.571,1.41,2.99,14.1,0.29,–,0.69
